Test systems include DLD-1 colon; DMS 114 small cell lung; M19-MEL melanoma; MALME-3M melanoma; MOLT-4 leukemia; P388 leukemia; P388/ADR leukemia; SK-OV-3 ovarian; SN12K1 renal; SW-620 colon; UO-31 renal; BT-549 breast; T-47D breast; XF 498 CNS.
What all share (experiment): NCI tumour cell line growth inhibition, 48 h

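Growth conditions: 96-well plates. Treatment: test compound, 48 hours, 5 concentrations. Analysis: linear interpolation between bracketing concentrations; unreached endpoints set to highest concentration. The concentration for full growth arrest is given as TGI.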

As for `COc1cc2c(cc1OC)-c1c3c(cc4c1[C@@H](C2)N(C)CC4)OCO3`, the TGI came to 49.5 µM in the test with DLD-1 colon; 24.8 µM in the test with DMS 114 small cell lung; 24.1 µM in the test on M19-MEL melanoma; 20.1 µM with MALME-3M melanoma; 12 µM with MOLT-4 leukemia; 27.1 µM in the test with P388 leukemia. Besides, the TGI came out at 23.3 µM in the test on P388/ADR leukemia; 50.6 µM in the test with SK-OV-3 ovarian; 22.3 µM in the test with SN12K1 renal; 30.3 µM in the test with SW-620 colon; 49.3 µM in the test with UO-31 renal.

For `CSC1=NS(=O)(=O)c2cc(C(=O)NN(C)C(=O)c3cc4c(cc3Cl)SC(SC)=NS4(=O)=O)c(Cl)cc2S1`, the TGI in the test with BT-549 breast, with MALME-3M melanoma, in the test on MOLT-4 leukemia, with SK-OV-3 ovarian, with SW-620 colon and in the test on T-47D breast was more than 10 µM throughout. The compound also came in with a TGI with UO-31 renal of more than 10 µM.

`NC(N)=NS(=O)(=O)c1ccc(NC(=O)c2ccc3nc4ccccc4c(Nc4ccc(S(N)(=O)=O)cc4)c3c2)cc1`: the TGI with BT-549 breast, with MALME-3M melanoma, with MOLT-4 leukemia, with SK-OV-3 ovarian, with SW-620 colon and in the test with T-47D breast was more than 100 µM throughout. The same compound displayed a TGI with UO-31 renal of more than 100 µM.

On to `CC1(COS(=O)(=O)OCC2(C)COS(=O)(=O)OC2)COS(=O)(=O)OC1`, for which the TGI in the test on BT-549 breast was more than 96.2 µM; in the test with MALME-3M melanoma it was more than 100 µM; with MOLT-4 leukemia it was more than 81.5 µM; in the test on SK-OV-3 ovarian, more than 100 µM; in the test with SW-620 colon, more than 100 µM; with T-47D breast it was more than 100 µM. Moreover, the TGI in the test with UO-31 renal was more than 100 µM.

In the case of `CC1(Cl)CC2C(CC1Sc1nnnn1-c1ccccc1)C2(C)C` (centres undefined), the TGI in the test on DLD-1 colon, in the test with DMS 114 small cell lung, in the test with M19-MEL melanoma, with MOLT-4 leukemia, in the test with SW-620 colon and with UO-31 renal was more than 100 µM in each case.

In the case of `NCCCCNCCCNC(=O)c1nc(-c2csc(CCN)n2)sc1Cl`, the TGI with DLD-1 colon, in the test with DMS 114 small cell lung, in the test on M19-MEL melanoma, in the test on MALME-3M melanoma, in the test with MOLT-4 leukemia and in the test with SK-OV-3 ovarian was more than 100 µM throughout. Besides, the TGI with SW-620 colon, with UO-31 renal and with XF 498 CNS was more than 100 µM throughout.

As for `Oc1ccc(CCc2cc(O)cc(O)c2)cc1`, the TGI with BT-549 breast, in the test on MALME-3M melanoma, in the test on MOLT-4 leukemia, with SK-OV-3 ovarian, in the test on SW-620 colon and in the test with T-47D breast was more than 100 µM throughout. Further, the TGI with UO-31 renal is more than 100 µM.

For the compound `[N-]=[N+]=Nc1ccc(CNc2cc(=O)[nH]c(=O)[nH]2)cc1`, the TGI in the test on BT-549 breast, in the test on MALME-3M melanoma, in the test with MOLT-4 leukemia, in the test on SK-OV-3 ovarian, with SW-620 colon and in the test on T-47D breast was more than 100 µM each time. This compound showed a TGI in the test on UO-31 renal of more than 100 µM.

Take `COc1cc(S(=O)(=O)Nc2ccc(-c3csc(N4C(=O)CSC4c4ccccc4)n3)cc2)ccc1Cl` (centres undefined): the TGI in the test with BT-549 breast is more than 100 µM; in the test with MALME-3M melanoma, more than 100 µM; in the test with MOLT-4 leukemia it was more than 100 µM; in the test on SK-OV-3 ovarian, more than 100 µM; in the test on SW-620 colon, more than 100 µM; with T-47D breast, 44.7 µM. The compound also registered a TGI in the test on UO-31 renal of more than 100 µM.

In the case of `S=C(S)NCC1CCC(CNC(=S)S)CC1` (centres undefined), the TGI with BT-549 breast was more than 100 µM; in the test with MALME-3M melanoma it was 63.1 µM; in the test on MOLT-4 leukemia it was 65.2 µM; with SK-OV-3 ovarian, more than 100 µM; in the test on SW-620 colon, more than 100 µM; with T-47D breast, 38.9 µM. The compound also displayed a TGI in the test on UO-31 renal of 47.5 µM.

Take `Cc1ccc(N=Nc2c(C)c(C#N)c(=S)n(C3OC(CO)C(O)C(O)C3O)c2-c2ccccc2)cc1` (centres undefined): the TGI with BT-549 breast was 42.1 µM; with MALME-3M melanoma, 47.7 µM; with MOLT-4 leukemia it was 38.9 µM; in the test with SK-OV-3 ovarian, more than 100 µM; in the test with SW-620 colon, 36.3 µM; in the test with T-47D breast, 57.2 µM. Moreover, the TGI in the test on UO-31 renal came out at 86.9 µM.

In the case of `Cc1c(-c2ccccc2)c(C#N)c2nnc(C(N)=O)c(N)n12`, the TGI with BT-549 breast, in the test with MALME-3M melanoma, in the test on MOLT-4 leukemia, with SK-OV-3 ovarian, in the test on SW-620 colon and with T-47D breast was more than 100 µM throughout. Further, in the test on UO-31 renal, the TGI is more than 100 µM.

On to `CC(C)OP(=O)(OC(C)C)C(C(C)C)N(C)/C(F)=N/C(F)(F)F` (centres undefined), for which the TGI in the test on BT-549 breast, with MALME-3M melanoma, with MOLT-4 leukemia, with SK-OV-3 ovarian, in the test on SW-620 colon and in the test with T-47D breast was more than 100 µM in each case. The same compound gave a TGI in the test with UO-31 renal of more than 100 µM.

As for `O=c1oc2ccc(Cl)cc2cc1-c1cn2cc(Cl)ccc2n1`, the TGI with BT-549 breast is more than 100 µM; in the test on MALME-3M melanoma, 92.5 µM; in the test with MOLT-4 leukemia, more than 100 µM; with SK-OV-3 ovarian it was more than 100 µM; with SW-620 colon, more than 100 µM; in the test on T-47D breast, more than 100 µM. In the test with UO-31 renal, this compound yielded a TGI of more than 100 µM.

With `COc1cc(C2SCC(=O)N2c2ccc(Oc3ccc(Cl)cc3)c(Cl)c2)cc(OC)c1OC` (centres undefined), the TGI was 32.5 µM in the test with BT-549 breast; 37.5 µM in the test with MALME-3M melanoma; more than 100 µM in the test with MOLT-4 leukemia; 33.6 µM in the test on SK-OV-3 ovarian; 58.3 µM with SW-620 colon; 27.5 µM in the test with T-47D breast. Further, in the test on UO-31 renal, the TGI was found to be 91.3 µM.

For `CC1(C)Oc2ccc(NC(=O)CCC(N)C(=O)O)cc2O1` (centres undefined), the TGI with BT-549 breast, in the test on MALME-3M melanoma, with MOLT-4 leukemia, in the test on SK-OV-3 ovarian, in the test with SW-620 colon and in the test with T-47D breast was more than 100 µM each time. The compound further yielded a TGI in the test on UO-31 renal of more than 100 µM.

For the compound `COc1cc(C2S/C(=C/c3ccccc3)C(=O)N2c2ccc(Cl)c(Cl)c2)cc(OC)c1OC` (centres undefined), the TGI in the test on BT-549 breast, with MALME-3M melanoma, with MOLT-4 leukemia, with SK-OV-3 ovarian, in the test with SW-620 colon and with T-47D breast was more than 100 µM each time. Also, the TGI with UO-31 renal is more than 100 µM.
